PMC5460189, “Melon13-lipoxygenase CmLOX18 may be involved in C6 volatiles biosynthesis in fruit” (Scientific Reports, 2017)

System: T1, CmLOX18
T1 construct: ORF in pYES2.1 TOPO-TA, His-tagged (anti-His), expressed in Saccharomyces cerevisiae INVSc1, purified
Assay: increase in A234, Michaelis-Menten plot
Type: biochemical, Cucumis melo
Settings: substrate 15-350 μM, pH and temperature of the kinetic runs not stated (optimum pH 4.5, 30 °C)

Km | Km (linolenic acid isomer not given, alpha assumed) | SMILES
127 ± 18.6 µM |  | CCCCC/C=C\C/C=C\CCCCCCCC(=O)O [Linoleic acid]
 | 40.7 ± 2.65 µM | CC/C=C\C/C=C\C/C=C\CCCCCCCC(=O)O [Linolenic acid]
